Measured values as given in US4731486A, “Hydroformylation using low volatile phosphine ligands” (Union Carbide Corporation, priority 1986, dated 1988).
Counter-ions that a name gives are not always drawn.

Columns and labels:
[1] = Batch hydroformylation of propylene in stirred autoclave (Examples 1, 2, 11, 14, 19); conditions: 100° C., 90 psia 1:1:1 H2:CO:C3H6
Procedure: A series of various rhodium complex catalyst precursor solutions consisting essentially of the solubilized reaction product of rhodium dicarbonyl acetylacetonate and various monosulfonated triphenylphosphine metal salt ligands were prepared and employed to hydroformylate propylene into C4 aldehydes in the following manner.
Each rhodium catalytic precursor solution so prepared was then employed to hydroformylate propylene in a magnetically stirred, 100 mL capacity, stainless steel autoclave which was attached to a gas manifold for introducing gases to the desired partial pressures. The autoclave was also equipped with a pressure calibrator for determining reaction pressure to ±0.01 psia. and a platinum resistance thermometer for determining reactor solution temperatures to ±0.10° C. The reactor was heated externally by two 300 watt heating bands. The reactor solution temperature was controlled by a platinum resistance sensor connected to an external proportional temperature controller for controlling the temperature of the external band heaters.
In each non-aqueous hydroformylation reaction, about 15 milliliters (about 14 grams) of the rhodium catalytic precursor solution so prepared was charged to the autoclave reactor under nitrogen and heated to the reaction temperature employed (as given in Table 1 below). The reactor was then vented down to 5 psig. and a premixed gas mixture of 1:1:1 carbon monoxide:hydrogen:propylene was introduced into the reactor via the gas manifold (partial pressures given in Table 1) and the propylene so hydroformylated.
A comparison of the catalytic activity of aqueous and non-aqueous solutions of monosulfonated triphenylphosphine sodium salt ligand promoted catalysts in hydroformylating various molecular weight alphe-olefins was determined as follows.
Both the aqueous and non-aqueous hydroformylation reactions were conducted under identical conditions with regard to temperature, rhodium and ligand concentration, hydrogen and carbon monoxide partial pressure and olefin concentration.

[2] = Solubility of metal salt ligands in nonanal with added solubilizing agent; assay type: physicochemical; conditions: 25° C., nonanal with 1:4 CARBOWAX TPEG-900/TERGITOL NP-9
[3] = Continuous single pass hydroformylation of butene-1 (Examples 3, 4, 5, 7, 12)
Procedure: Continuous hydroformylation of butene-1 a monosulfonated triphenylphosphine metal salt ligand was conducted in the following manner.
The non-aqueous hydroformylation was conducted in a glass reactor operating in a continuous single pass butene-1 hydroformylation mode. The reactor consisted of a three-ounce pressure bottle submersed in an oil bath with a lass front for viewing. About 20-mL of a freshly prepared rhodium catalytic precursor solution was charged to the reactor with a syringe, after purging the system with nitrogen. […] After closing the reactor, the system was again purged with nitrogen and the oil bath was heated to furnish the desired hydroformylation reaction temperature. The hydroformylation reaction was conducted at a total gas pressure of about 160 psig., the partial pressures of hydrogen, carbon monoxide, and butene-1 being given in Table 3 below, the remainder being nitrogen and aldehyde product.
The flows of the feed gases (carbon monoxide, hydrogen, butene-1 and nitrogen) were controlled individually with mass flow meters and the feed gases dispersed into the precursor solution via microporous stainless steel spargers. The unreacted portion of the feed gases was stripped out with the product C5 aldehydes and the outlet gas analyzed over about 12 days of continuous operation.

[4] = Texanol, 240 ppm Rhodium, about 14 mole equivalents ligand (0.9 wt. %)
[5] = Texanol/PEG-600 20:1, day 0.9, 101 °C, CO 20, H2 59, C4H8 20 psia
[6] = Texanol/PEG-600 20:1, day 1.7, 101 °C, CO 19, H2 55, C4H8 18 psia
[7] = Texanol/PEG-600 20:1, day 5.0, 101 °C, CO 16, H2 47, C4H8 36 psia
[8] = Texanol/PEG-600 20:1, day 5.9, 101 °C, CO 17, H2 51, C4H8 29 psia
[9] = Texanol/PEG-600 20:1, day 7.0, 101 °C, CO 13, H2 43, C4H8 50 psia
[10] = Texanol/PEG-600 20:1, day 8.0, 101 °C, CO 17, H2 41, C4H8 36 psia
[11] = Texanol/PEG-600 20:1, day 9.0, […], CO 17, H2 36, C4H8 52 psia
[12] = Texanol/PEG-600 20:1, day 10.0, […], CO 18, H2 30, C4H8 56 psia
[13] = Texanol/PEG-600 20:1, day 11.8, […], CO 17, H2 29, C4H8 63 psia
[14] = Texanol/PEG-600 20:1, day 11.9 (so in the source), […], CO 17, H2 29, C4H8 59 psia
[15] = Texanol/PEG-600 20:1, day 12.6, 103 °C, CO 18, H2 29, C4H8 61 psia
[16] = 200 ppm Rh, about 120 mole equivalents ligand, Texanol/Carbowax PEG-600: Li 100:0, K 9:1, Rb 8:1, Cs 7:1, Ca 20:1, Ba 7:1, Sr 18:1
[17] = Texanol, day 0.8, 80 °C, CO 40, H2 39, C4H8 3 psia
[18] = Texanol, day 1.9, 80 °C, CO 38, H2 41, C4H8 4 psia
[19] = Texanol, day 2.8, 80 °C, CO 39, H2 41, C4H8 3 psia
[20] = Texanol, day 3.9, 80 °C, CO 38, H2 42, C4H8 4 psia
[21] = Texanol, day 5.0, 80 °C, CO 38, H2 42, C4H8 4 psia
[22] = Texanol, day 5.8, 80 °C, CO 38, H2 42, C4H8 5 psia
[23] = Texanol, day 6.8, 80 °C, CO 38, H2 43, C4H8 4 psia
[24] = Texanol, day 7.8, 80 °C, CO 38, H2 44, C4H8 5 psia
[25] = Texanol, day 9.0, 80 °C, CO 39, H2 43, C4H8 5 psia
[26] = Texanol, day 10.0, 80 °C, CO 42, H2 38, C4H8 6 psia
[27] = Texanol, day 10.9, 80 °C, CO 41, H2 39, C4H8 6 psia
[28] = Texanol, day 11.0 (so in the source), 80 °C, CO 41, H2 39, C4H8 6 psia
[29] = Texanol, day 12.9, 80 °C, CO 41, H2 39, C4H8 5 psia

O=S(=O)(O)c1cccc(P(c2ccccc2)C2CCCCC2)c1 (stereo not drawn) [CHDPPMS-Na, monosulfonated cyclohexyldiphenylphosphine sodium salt]
Linear/Branched Aldehyde Mole Ratio [1, 4]: 1.6 | Reaction Rate (C4 aldehydes) [1, 4]: 0.32 G moles/L/hr

O=S(=O)(O)c1cccc(P(c2ccccc2)c2ccccc2)c1 [Ca^++, monosulfonated triphenylphosphine calcium salt]
Linear/Branched Aldehyde Mole Ratio ([1]; 200 ppm Rh, about 120 mole equivalents ligand, Texanol/Carbowax PEG-600: Li 100:0, K 9:1, Rb 8:1, Ca 20:1, Ba 7:1, calcium salt): 4.7 | Reaction Rate (C4 aldehydes) ([1]; 200 ppm Rh, about 120 mole equivalents ligand, Texanol/Carbowax PEG-600: Li 100:0, K 9:1, Rb 8:1, Cs 7:1, Ca 20:1, Ba 7:1, Sr 18:1, calcium salt): 0.51 Gmoles/L/Hr | Metal Salt Solubility ([2]; calcium salt): 18 Wt. % | Linear/Branched Aldehyde Mole Ratio [3, 5]: 12.84 | Rate (C5 aldehydes), daily average [3, 5]: 1.27 gmoles/L/Hr | Linear/Branched Aldehyde Mole Ratio [3, 6]: 14.44 | Rate (C5 aldehydes), daily average [3, 6]: 1.38 gmoles/L/Hr | Linear/Branched Aldehyde Mole Ratio [3, 7]: 13.06 | Rate (C5 aldehydes), daily average [3, 7]: 1.62 gmoles/L/Hr | Linear/Branched Aldehyde Mole Ratio [3, 8]: 17.67 | Rate (C5 aldehydes), daily average [3, 8]: 1.64 gmoles/L/Hr | Linear/Branched Aldehyde Mole Ratio [3, 9]: 20.95 | Rate (C5 aldehydes), daily average [3, 9]: 1.85 gmoles/L/Hr | Linear/Branched Aldehyde Mole Ratio [3, 10]: 18.76 | Rate (C5 aldehydes), daily average [3, 10]: 2.09 gmoles/L/Hr | Linear/Branched Aldehyde Mole Ratio [3, 11]: 18.38 | Rate (C5 aldehydes), daily average [3, 11]: 2.19 gmoles/L/Hr | Linear/Branched Aldehyde Mole Ratio [3, 12]: 20.52 | Rate (C5 aldehydes), daily average [3, 12]: 1.40 gmoles/L/Hr | Linear/Branched Aldehyde Mole Ratio [3, 13]: 18.90 | Rate (C5 aldehydes), daily average [3, 13]: 1.51 gmoles/L/Hr | Linear/Branched Aldehyde Mole Ratio [3, 14]: 21.86 | Rate (C5 aldehydes), daily average [3, 14]: 1.62 gmoles/L/Hr | Linear/Branched Aldehyde Mole Ratio [3, 15]: 28.03 | Rate (C5 aldehydes), daily average [3, 15]: 1.83 gmoles/L/Hr

O=S(=O)(O)c1cccc(P(c2ccccc2)c2ccccc2)c1 [Cs^+]
Reaction Rate (C4 aldehydes) [1, 16]: Declining Rate | Metal Salt Solubility [2]: > 10 Wt. %

O=S(=O)(O)c1cccc(P(C2CCCCC2)C2CCCCC2)c1 [DCHPPMS-Na, monosulfonated dicyclohexylphenylphosphine sodium salt]
Linear/Branched Aldehyde Mole Ratio [1, 4]: 1.2 | Reaction Rate (C4 aldehydes) [1, 4]: 0.78 G moles/L/hr | Linear/Branched Aldehyde Mole Ratio [3, 17]: 1.86 | Rate (C5 aldehydes), daily average [3, 17]: 0.86 gmoles/L/Hr | Linear/Branched Aldehyde Mole Ratio [3, 18]: 1.88 | Rate (C5 aldehydes), daily average [3, 18]: 1.02 gmoles/L/Hr | Linear/Branched Aldehyde Mole Ratio [3, 19]: 1.99 | Rate (C5 aldehydes), daily average [3, 19]: 0.87 gmoles/L/Hr | Linear/Branched Aldehyde Mole Ratio [3, 20]: 1.84 | Rate (C5 aldehydes), daily average [3, 20]: 0.85 gmoles/L/Hr | Linear/Branched Aldehyde Mole Ratio [3, 21]: 1.83 | Rate (C5 aldehydes), daily average [3, 21]: 0.88 gmoles/L/Hr | Linear/Branched Aldehyde Mole Ratio [3, 22]: 1.79 | Rate (C5 aldehydes), daily average [3, 22]: 0.86 gmoles/L/Hr | Linear/Branched Aldehyde Mole Ratio [3, 23]: 1.95 | Rate (C5 aldehydes), daily average [3, 23]: 0.80 gmoles/L/Hr | Linear/Branched Aldehyde Mole Ratio [3, 24]: 1.78 | Rate (C5 aldehydes), daily average [3, 24]: 0.86 gmoles/L/Hr | Linear/Branched Aldehyde Mole Ratio [3, 25]: 1.75 | Rate (C5 aldehydes), daily average [3, 25]: 0.72 gmoles/L/Hr | Linear/Branched Aldehyde Mole Ratio [3, 26]: 1.79 | Rate (C5 aldehydes), daily average [3, 26]: 0.94 gmoles/L/Hr | Linear/Branched Aldehyde Mole Ratio [3, 27]: 1.89 | Rate (C5 aldehydes), daily average [3, 27]: 0.95 gmoles/L/Hr | Linear/Branched Aldehyde Mole Ratio [3, 28]: 1.92 | Rate (C5 aldehydes), daily average [3, 28]: 0.99 gmoles/L/Hr | Linear/Branched Aldehyde Mole Ratio [3, 29]: 1.77 | Rate (C5 aldehydes), daily average [3, 29]: 0.95 gmoles/L/Hr

O=S(=O)(O)c1cccc(P(c2ccccc2)c2ccccc2)c1 [K^+]
Linear/Branched Aldehyde Mole Ratio ([1]; 200 ppm Rh, about 120 mole equivalents ligand, Texanol/Carbowax PEG-600: Li 100:0, K 9:1, Rb 8:1, Ca 20:1, Ba 7:1): 5.1 | Reaction Rate (C4 aldehydes) [1, 16]: 0.87 Gmoles/L/Hr

O=S(=O)(O)c1cccc(P(c2ccccc2)c2ccccc2)c1 [Sr^++]
Reaction Rate (C4 aldehydes) [1, 16]: No Rate
